Assay results: patent US5656622A, “15,15-dialkyl-substituted derivatives of estradiol” (Schering Aktiengesellschaft, priority 1993, dated 1997)

Legend:
estrogen receptor = estrogen receptor binding test; details: tissue from rat uteri, 3H-estradiol as reference substance
Procedure: The estrogenic effectiveness of the compounds according to the invention can be shown by the results of the estrogen receptor binding test. In this known in vitro test, tissue from rat uteri is prepared and radioactively-labeled ^3 H-estradiol is used as reference substance. The compound according to the invention 15,15-dimethyl-estra-1,3,5(10)-triene-3,17β-diol accordingly has a competition factor K of 1.5.

[1] = test system: 17β-hydroxysteroid dehydrogenase from human placenta; test: stability against 17β-hydroxysteroid dehydrogenase, incubation with placenta microsomes; type: in vitro ADME; details: NADP 0.5 mmol
Procedure: To determine the stability of estradiol (A) itself as well as of a compound according to the invention, i.e., 15,15-dimethyl-estra-1,3,5(10)-triene-3,17β-diol (B), against 17β-hydroxysteroid dehydrogenase from human placenta, the test substances are incubated with placenta microsomes in the presence of NADP (nicotinamide-adenine-dinucleotide phosphate; 0.5 mmol).
The steroids (initial substrate and product) are extracted and separated by HPLC. For evaluation, the quotients are formed from the electronically integrated peak areas of the corresponding reaction product (namely the assumed 17-keto compound) and the initial substance and plotted against the incubation time (FIG. 1).

CC1(C)C[C@H](O)[C@@]2(C)CC[C@@H]3c4ccc(O)cc4CC[C@H]3[C@H]12 [15,15-dimethylestra-1,3,5(10)-triene-3,17β-diol]
competition factor K (estrogen receptor): 1.5
conversion to the 17-keto compound by 17β-hydroxysteroid dehydrogenase (quotient of HPLC peak areas product/initial substance against incubation time, FIG. 1) [1]: only moderate substrate
